Biological target: T1, 488-GAC (WT) (Mus musculus, UniProt D3Z7P3)
T1 construct: plasmid (residues 72-603 for GAC, 72-674 for KGA); His-tag with thrombin cleavage site (N, cleaved yes); made in house; host or cells: pET23a vector
T1 sequence (D3Z7P3 72-603 isoform D3Z7P3-2): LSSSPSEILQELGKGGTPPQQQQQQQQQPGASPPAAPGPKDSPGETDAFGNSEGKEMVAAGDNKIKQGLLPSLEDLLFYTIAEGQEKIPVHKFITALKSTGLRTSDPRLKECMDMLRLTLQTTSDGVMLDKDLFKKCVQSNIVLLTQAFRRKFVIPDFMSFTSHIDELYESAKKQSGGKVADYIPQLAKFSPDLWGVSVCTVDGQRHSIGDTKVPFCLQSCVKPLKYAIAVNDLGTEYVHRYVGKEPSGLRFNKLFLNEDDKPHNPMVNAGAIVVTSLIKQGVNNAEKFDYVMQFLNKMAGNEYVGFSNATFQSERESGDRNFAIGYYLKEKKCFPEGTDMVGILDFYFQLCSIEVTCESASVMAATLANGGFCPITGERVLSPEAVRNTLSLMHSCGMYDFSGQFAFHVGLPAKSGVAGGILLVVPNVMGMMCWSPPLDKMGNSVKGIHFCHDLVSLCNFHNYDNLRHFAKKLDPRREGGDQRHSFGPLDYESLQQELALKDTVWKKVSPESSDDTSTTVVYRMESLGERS
Assay: Real-time binding read-out by 488-GAC fluorescence quenching
Settings: for quenching of 488-GAC fluorescence (direct binding): 10 nM 488-GAC, no QSY 9-GAC
Protocol: Real-time fluorescence monitoring of 488-GAC fluorescence and NADH fluorescence was performed on a Varian Carry Eclipse Fluorometer, whereas small molecule inhibition and binding titrations were performed in a 96-well format using Grenier non-binding 96-well plates in a Tecan Saphire absorbance and fluorescence plate reader. Samples for monitoring real time binding of 968 to 488-GAC were prepared by adding 10 […] (490 nm excitation/520 nm emission). Similarly, this method was replicated for monitoring real time binding of 968 to KGA and mutant forms of GAC, namely 488-D391K-GAC and 488-K316E-D391K-R459E-GAC. Titrations of 968 with mutant forms of GAC were done in triplicate and quantified by the following equation
[formula] where F is the normalized fluorescence at given drug concentration (i.e., F/F0), and Fsat is the normalized fluorescence at saturating concentrations of drug, as shown in FIG. 7A. […] 10 nM WT GAC was added and allowed to equilibrate 2 minutes before beginning to monitor fluorescence of 488-GAC (490 nm excitation, 520 nm emission) and NADH fluorescence (340 nm excitation, 490 nm emission). […] The activity of GAC was indirectly measured by the NADH produced by the added glutamate dehydrogenase, which converts the product of glutaminase activity, glutamate, to α-ketoglutarate and ammonia through reducing NAD^+ to NADH. Because solutions containing glutamine undergo non-enzymatic degradation to glutamate, samples were further analyzed by subtracting the evolved NADH produced by glutaminase in the presence of 968, BPTES, or the equivalent volume of DMSO as a control, by the evolved NADH produced in the absence of glutaminase under identical experimental conditions. Evolved NADH was quantified using a standard curve of freshly prepared NADH (Sigma) in 50 mM Tris-Acetate pH=8.5, 0.1 mM EDTA.
Procedures for the described real-time binding and inhibition assays were adapted for 96-well microtiter format with minor alterations. […] Quenching was quantified by subtracting the normalized fluorescence by one (i.e., 1-F/F0). […]

For `O=C(Cc1ccccc1)Nc1nnc(CCSCCc2nnc(NC(=O)Cc3ccccc3)s2)s1` [BPTES], the “quenching of 488-GAC fluorescence (direct binding)” value was “without affecting the fluorescence emission”.

`CN(C)c1ccc(C2Nc3ccc4ccccc4c3C3=C2C(=O)CC(C)(C)C3)cc1Br` (stereo not drawn) [compound 968] was tested, and the “quenching of 488-GAC fluorescence (direct binding)” value was “concentration dependent quenching” and the “binding to 488-labeled GAC (WT)” value (20 nM 488-labeled protein, 968 titration) was “capable of binding”.

Source: patent US11046945B2, “Labeled glutaminase proteins, isolated glutaminase protein mutants, methods of use, and kit” (CORNELL UNIVERSITY, priority 2013, dated 2021)
